# Experimental data taken from patent US11591634B1, “Forecasting bacterial survival-success and adaptive evolution through multiomics stress-response mapping and machine learning” (priority 2019, dated 2023).
# Tests used:
# [1] = tested on: antibiotic-adapted S. pneumoniae 19F (a19F); experiment: Fitness outcome under antibiotic exposure (growth curve assay); type: cell-based, Streptococcus pneumoniae
# Procedure: (§1) To test whether a gene-panel model can be trained that predicts fitness for many different conditions, a large RNA-Seq dataset was generated for the human pathogen Streptococcus pneumoniae. […] These include cell wall synthesis inhibitors (CWSI), DNA synthesis inhibitors (DSI), protein synthesis inhibitors (PSI) and RNA synthesis inhibitors ((RSI); FIG. 1A, Tables 1 & 2). Each strain was exposed to each antibiotic for 2 to 4 hours and cells were harvested for RNA-Seq at various time points. As T4 and 19F are susceptible to most antibiotics used, the transcriptional profiles in the presence of antibiotics mostly represent cases of low fitness (FIG. 1A, sensitive strain, 1xMICWT). In order to find patterns that differentiate fitness outcomes, adapted strains were generated with increased fitness in the presence of antibiotics by serial passaging wildtype T4 and 19F in the presence of increasing amounts of antibiotics. Four independent adapted populations for each strain were selected on individual antibiotics. These adapted strains could grow in the presence of antibiotic at 1.5xMIC of the wildtype strain, albeit with a small growth defect (FIGS. 6A-6E & 6F). In parallel, RNA-Seq was performed on S. pneumoniae strains D39 and T4 in a chemically defined medium, and media from which either uracil, Glycine or L-Valine was removed, which are essential for D39 but not T4. This enabled the potential identification of a common stress signature that is shared between antibiotic exposure and nutrient deprivation, and across multiple strains. Lastly, D39 was adapted to grow in the absence of each individual nutrient, after which RNA-Seq was repeated for adapted clones (Table 1 lists all 24 strains, 67 populations and 267 RNA-Seq experiments).
# (§2) S. pneumoniae strain TIGR4 (T4; NC_003028.3) is a serotype 4 strain originally isolated from a patient^3,4, Taiwan-19F (19F; NC_012469.1) is a multi-drug resistant strain^5,6 and D39 (NC_008533) is a commonly used serotype 2 strain originally isolated from a patient about 90 years ago^7. Strain PG1 and PG19 were isolated from adults with pneumococcal bacteremia infection and included in the Pneumococcal Bacteremia Collection Nijmegen (PBCN)^8. All S. pneumoniae gene numbers refer to the T4 genome. Correspondence between homologous genes among S. pneumoniae strains and gene function annotations are described herewith. Escherichia coli strain AR538, Klebsiella pneumoniae strain AR497 and Salmonella enterica subsp Typhimurium strain AR635 were clinical isolates obtained from the Center of Disease Control (CDC). Staphylococcus aureus strain MN6 was kindly provided by George Sakoulas (Center of Immunity, Infection & Inflammation, UCSD School of Medicine). Unless otherwise specified, S. pneumoniae strains were cultivated in Todd Hewitt medium with 5% yeast extract (THY) with 5 μL/mL oxyrase (Oxyrase, Inc) or on sheep's blood agar plates (Northeastern Laboratories) at 37° C. with 5% CO2. A. baumannii, E. coll. K. pneumoniae, S. aureus and S. Typhimurium were cultured in Mueller Hinton broth II (Sigma) at 37° C. with 220 rpm constant shaking. Tn-Seq and RNA-Seq experiments of S. pneumoniae under nutrient-depletion and antibiotic conditions were performed in chemically defined medium (CDM)^9 and semi-defined minimal medium (SDMM)^10, respectively. RNA-Seq experiments for A. baumannii, S. Typhimurium, E. coll. K. pneumoniae, and S. aureus were performed in Mueller Hinton broth II. Single strain growth assays were performed at least three times using 96-well plates by taking OD600 measurements on a Tecan Infinite 200 PRO plate reader.
# (§3) D39 was used as the parental strain in nutrient-depletion evolution experiments; T4 and 19F were used as parental strains in antibiotic evolution experiments. […] Four replicate populations were serial passaged in CDM or SDMM as controls to identify background adaptations in nutrient or antibiotic adaptation experiments, respectively. […]
# [2] = tested on: antibiotic-adapted S. pneumoniae T4 (aT4); experiment: as above; type: cell-based, Streptococcus pneumoniae
# Procedure: as §1, §2, §3
# [3] = tested on: S. pneumoniae serotype 23F; experiment: Fitness outcome under ciprofloxacin (growth curve assay); type: cell-based, Streptococcus pneumoniae; details: S. pneumoniae 23F
# Procedure: (§4) Since the single-timepoint variant of entropy is the most practical (in terms of data collection and cost), the generalizability of entropy to previously unseen species was evaluated using this model. RNA-Seq was performed at 120 min post exposure to 1 μg/mL of CIP. […] Single-timepoint entropy was computed for the transcriptome of each of these previously unseen isolates.
# as §2
# S. pneumoniae serotype 1 = experiment: as above; type: cell-based, Streptococcus pneumoniae; details: 1 μg/mL ciprofloxacin
# Procedure: as §4, §2
# [4] = tested on: S. pneumoniae strain TIGR4 (T4); experiment: Determination of relative minimal inhibitory concentration (MIC); type: cell-based, Streptococcus pneumoniae; details: Streptococcus pneumoniae, lowest concentration that abolishes bacterial growth, 16 hours, 37° C., read-out: 1x MIC for T4
# Procedure: (§5) Each concentration was tested in triplicate. Growth was monitored on a Tecan Infinite 200 PRO plate reader at 37° C. for 16 hours. MIC is determined as the lowest concentration that abolishes bacterial growth (FIGS. 6A-6H).
# [5] = tested on: S. pneumoniae strain Taiwan-19F (19F); experiment: as above; type: cell-based, Streptococcus pneumoniae; details: Streptococcus pneumoniae, 16 h, read-out: 1x MIC for 19F
# Procedure: as §5
# [6] = tested on: Acinetobacter baumannii 17978; experiment: Fitness outcome under ciprofloxacin (growth curve assay); type: cell-based; details: A. baumannii 17978; 1 μg/mL ciprofloxacin
# Excerpt: as §2, with “K. pneumoniae, S. aureus and S. Typhimurium were cultured in Mueller Hinton broth II (Sigma) at 37° C. with 220 rpm constant shaking. Tn-Seq and RNA-Seq experiments of S. pneumoniae under nutrient-depletion and antibiotic conditions were performed in chemically defined medium (CDM)^9 and semi-defined minimal medium (SDMM)^10, respectively. RNA-Seq experiments for A. baumannii, S. Typhimurium, E. coll. K. pneumoniae, and S. aureus were performed in Mueller Hinton broth II.” left out
# [7] = tested on: Acinetobacter baumannii LAC-4; experiment: as above; type: cell-based; details: A. baumannii LAC-4; 1 μg/mL ciprofloxacin
# Excerpt: as §2, with “K. pneumoniae, S. aureus and S. Typhimurium were cultured in Mueller Hinton broth II (Sigma) at 37° C. with 220 rpm constant shaking. Tn-Seq and RNA-Seq experiments of S. pneumoniae under nutrient-depletion and antibiotic conditions were performed in chemically defined medium (CDM)^9 and semi-defined minimal medium (SDMM)^10, respectively. RNA-Seq experiments for A. baumannii, S. Typhimurium, E. coll. K. pneumoniae, and S. aureus were performed in Mueller Hinton broth II.” left out
# S. pneumoniae 19F = experiment: Fitness outcome under antibiotic exposure (growth curve assay); type: cell-based, Streptococcus pneumoniae
# Procedure: as §1, §2
# S. pneumoniae T4 = experiment: as above; type: cell-based, Streptococcus pneumoniae
# Procedure: as §1, §2
# A. baumannii ATCC 17978 = experiment: Single time-point entropy (RNA-Seq) with linear regression MIC prediction; type: cell-based; details: Acinetobacter baumannii, ATCC17978, 2 h; read-out: predicted MIC (linear regression model on entropy)
# [8] = tested on: Klebsiella pneumoniae AR497; experiment: Fitness outcome under ciprofloxacin (growth curve assay); type: cell-based; details: K. pneumoniae AR497
# Procedure: as §4, §2
# [9] = 1 μg/mL ciprofloxacin, listed as CIP
# [10] = 1 μg/mL ciprofloxacin, listed as ciprofloxacin
# [11] = strain-specific 1xMIC of ciprofloxacin
smiles,measurement,setting,value
"O=C(O)c1cn(C2CC2)c2cc(N3CCNCC3)c(F)cc2c1=O [Ciprofloxacin, ciprofloxacin]",Fitness,"[1]; a19F, 19F adapted to the respective antibiotic, 1xMIC and 1.5-2xMIC, growth curves",High
same,Survive (real survival outcome),"[1]; strain 19F, Adapted TRUE, Concentration L (low)",TRUE
same,Fitness,"[2]; aT4, T4 adapted to the respective antibiotic, 1xMIC and 1.5-2xMIC, growth curves",High
same,Survive (real survival outcome),"[2]; strain T4, Adapted TRUE, Concentration L (low)",TRUE
same,Fitness,[3]; 1 μg/mL ciprofloxacin,High
same,Fitness,[3]; [9],insensitive
same,Fitness,[3]; [10],high fitness
same,Fitness,[3]; [11],"Low,"
same,Fitness,S. pneumoniae serotype 1,Low
same,Fitness,S. pneumoniae serotype 1; listed as ciprofloxacin,low fitness
same,MIC,[4],1 µg/mL
same,MIC,[5],1 µg/mL
same,Fitness,[6],Low
same,Fitness,[7],High
same,Fitness,"S. pneumoniae 19F; S. pneumoniae 19F wild-type, growth curves",Low
same,Survive (real survival outcome),"S. pneumoniae 19F; strain 19F, Adapted FALSE, Concentration L (low)",FALSE
same,Fitness,"S. pneumoniae T4; S. pneumoniae T4 wild-type, 1xMIC antibiotic, growth curves",Low
same,Survive (real survival outcome),"S. pneumoniae T4; strain T4, Adapted FALSE, Concentration L (low)",FALSE
same,MIC,A. baumannii ATCC 17978,0.04 µg/mL
same,Fitness,[8]; 1 μg/mL ciprofloxacin,High
same,Fitness,[8]; [9],insensitive
same,Fitness,[8]; [10],high fitness
same,Fitness,[8]; [11],"Low,"
